Results published in patent US20230348487A1, “2-AMINOPYRIMIDINE COMPOUND AND PHARMACEUTICAL COMPOSITION THEREOF AND APPLICATION THEREOF” (GUANGZHOU SALUSTIER BIOSCIENCES CO., LTD., priority 2021, published 2023).
Several values for one entry are separate records, joined by “and”; a condition that tells them apart may be missing. Equal values may be shown once. Read-outs that look alike come from different tables or passages of the source.

Assays:
TYK2 = TYK2 (Homo sapiens (Human), UniProt P29597); assay: Z′-Lyte kinase inhibitory activity test; assay type: biochemical; conditions: ATP concentration Km
Sequence of TYK2 (P29597 whole entry): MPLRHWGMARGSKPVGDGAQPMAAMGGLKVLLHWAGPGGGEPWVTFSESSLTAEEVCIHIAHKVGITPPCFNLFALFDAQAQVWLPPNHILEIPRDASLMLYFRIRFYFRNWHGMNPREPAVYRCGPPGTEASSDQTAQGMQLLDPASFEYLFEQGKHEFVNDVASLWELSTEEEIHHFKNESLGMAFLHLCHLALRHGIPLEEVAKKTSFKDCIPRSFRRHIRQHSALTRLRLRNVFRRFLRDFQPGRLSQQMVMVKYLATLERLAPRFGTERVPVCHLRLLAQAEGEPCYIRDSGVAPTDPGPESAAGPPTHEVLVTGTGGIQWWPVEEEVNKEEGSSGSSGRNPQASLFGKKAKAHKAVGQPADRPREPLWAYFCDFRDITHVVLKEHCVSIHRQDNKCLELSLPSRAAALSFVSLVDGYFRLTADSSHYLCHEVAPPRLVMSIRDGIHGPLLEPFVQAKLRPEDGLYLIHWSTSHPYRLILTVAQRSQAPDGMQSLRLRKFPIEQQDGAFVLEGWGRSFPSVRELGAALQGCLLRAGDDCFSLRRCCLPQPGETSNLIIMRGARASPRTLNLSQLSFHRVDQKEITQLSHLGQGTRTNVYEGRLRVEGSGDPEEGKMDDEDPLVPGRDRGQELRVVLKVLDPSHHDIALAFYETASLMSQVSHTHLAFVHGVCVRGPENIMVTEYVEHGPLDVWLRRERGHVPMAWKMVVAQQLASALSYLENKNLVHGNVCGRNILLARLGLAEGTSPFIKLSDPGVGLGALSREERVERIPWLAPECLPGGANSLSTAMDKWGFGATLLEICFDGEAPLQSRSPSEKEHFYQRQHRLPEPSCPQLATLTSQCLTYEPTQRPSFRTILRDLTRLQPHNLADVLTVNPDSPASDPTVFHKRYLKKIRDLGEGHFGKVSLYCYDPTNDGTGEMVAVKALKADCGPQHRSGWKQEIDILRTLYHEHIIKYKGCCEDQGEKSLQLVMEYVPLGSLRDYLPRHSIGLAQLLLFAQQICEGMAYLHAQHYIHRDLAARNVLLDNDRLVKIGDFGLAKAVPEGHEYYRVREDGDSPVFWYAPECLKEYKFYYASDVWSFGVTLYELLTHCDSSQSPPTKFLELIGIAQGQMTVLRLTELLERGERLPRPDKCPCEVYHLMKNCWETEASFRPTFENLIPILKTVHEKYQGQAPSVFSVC
Method: (§1) Test method: Firstly, test compounds were prepared into 10 mM stock solution with DMSO, and continuously diluted into 10 concentrations at a 3-fold gradient for later use. 5X reaction buffer was diluted with deionized water into 1×reaction buffer (50 mM HEPES pH 7.5, 0.01% Brij-35, 10 mM MgCl2, 1 mM EGTA), which was used to prepare a mixture of kinase and peptide substrate, as well as a phosphorylated peptide substrate solution. The kinase concentration was determined based on enzyme titration, and the final concentration of peptide substrate and phosphorylated peptide substrate was 2 μM. 5 μL of mixture substrate of kinase and peptide substrate was added to each well on the 384 well plate. Then 5 nL of the test compound (starting with a final concentration of 10 μM) was added with an Echo520 Sampler. […] An additional 100% phosphorylation well (5 μL phosphorylated peptide substrate solution), a 0% phosphorylated well (5 μL of a mixture of kinase and peptide substrate, without test compounds and ATP), and a 0% inhibitory well (5 μL of a mixture of kinase and peptide substrate and appropriate concentration of ATP) were set as control. Two repeats were set for each concentration. The above reaction system was incubated at 30° C. for 1.5 hours. […] 2.5 μL of the diluted mixture was added to each well and the system was incubated at 30° C. for another 1 hour. […] The substrate phosphorylation rate was obtained by calculating the ratio, and the activity of the kinase and the effect of the inhibitor on the kinase was further calculated. Every experiment was repeated at least three times.

JAK3 = JAK3 (Homo sapiens (Human), UniProt P52333); assay: Z′-Lyte kinase inhibitory activity test; assay type: biochemical; conditions: for JAK3 kinase inhibitory activity and selectivity (in words): summary of Table 3, activity maintained at ATP 1 mM
Sequence of JAK3 (P52333 whole entry): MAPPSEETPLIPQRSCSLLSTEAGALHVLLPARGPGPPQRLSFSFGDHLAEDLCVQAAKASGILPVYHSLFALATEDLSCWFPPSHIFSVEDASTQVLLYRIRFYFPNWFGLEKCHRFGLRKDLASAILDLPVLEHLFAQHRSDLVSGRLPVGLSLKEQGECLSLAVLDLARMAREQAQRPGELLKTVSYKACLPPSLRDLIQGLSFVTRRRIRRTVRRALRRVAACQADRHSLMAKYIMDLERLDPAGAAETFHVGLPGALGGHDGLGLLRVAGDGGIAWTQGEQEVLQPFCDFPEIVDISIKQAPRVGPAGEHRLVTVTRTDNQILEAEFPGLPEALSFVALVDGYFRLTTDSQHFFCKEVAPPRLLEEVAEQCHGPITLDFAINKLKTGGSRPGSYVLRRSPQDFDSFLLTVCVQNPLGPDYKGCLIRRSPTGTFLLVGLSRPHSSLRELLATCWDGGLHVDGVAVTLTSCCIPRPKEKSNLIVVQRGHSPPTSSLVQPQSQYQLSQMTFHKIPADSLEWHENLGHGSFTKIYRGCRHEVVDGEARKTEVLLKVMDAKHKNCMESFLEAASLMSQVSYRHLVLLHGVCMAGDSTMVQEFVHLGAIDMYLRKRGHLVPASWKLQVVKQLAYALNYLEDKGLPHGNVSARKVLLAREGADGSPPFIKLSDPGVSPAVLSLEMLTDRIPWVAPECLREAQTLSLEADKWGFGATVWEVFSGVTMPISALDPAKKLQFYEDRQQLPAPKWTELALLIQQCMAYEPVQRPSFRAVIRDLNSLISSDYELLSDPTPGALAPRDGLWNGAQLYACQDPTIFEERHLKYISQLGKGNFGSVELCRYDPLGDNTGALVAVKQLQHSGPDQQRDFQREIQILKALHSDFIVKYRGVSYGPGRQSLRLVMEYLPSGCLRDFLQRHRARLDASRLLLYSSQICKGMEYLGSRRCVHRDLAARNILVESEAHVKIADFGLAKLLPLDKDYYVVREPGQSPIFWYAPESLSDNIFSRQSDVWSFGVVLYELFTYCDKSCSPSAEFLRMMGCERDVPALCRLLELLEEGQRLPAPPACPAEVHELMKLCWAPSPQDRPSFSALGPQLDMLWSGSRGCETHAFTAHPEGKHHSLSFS
Method: as §1

JAK1 = JAK1 (Homo sapiens (Human), UniProt P23458); assay: Z′-Lyte kinase inhibitory activity test; assay type: biochemical; conditions: ATP concentration Km
Sequence of JAK1 (P23458 whole entry): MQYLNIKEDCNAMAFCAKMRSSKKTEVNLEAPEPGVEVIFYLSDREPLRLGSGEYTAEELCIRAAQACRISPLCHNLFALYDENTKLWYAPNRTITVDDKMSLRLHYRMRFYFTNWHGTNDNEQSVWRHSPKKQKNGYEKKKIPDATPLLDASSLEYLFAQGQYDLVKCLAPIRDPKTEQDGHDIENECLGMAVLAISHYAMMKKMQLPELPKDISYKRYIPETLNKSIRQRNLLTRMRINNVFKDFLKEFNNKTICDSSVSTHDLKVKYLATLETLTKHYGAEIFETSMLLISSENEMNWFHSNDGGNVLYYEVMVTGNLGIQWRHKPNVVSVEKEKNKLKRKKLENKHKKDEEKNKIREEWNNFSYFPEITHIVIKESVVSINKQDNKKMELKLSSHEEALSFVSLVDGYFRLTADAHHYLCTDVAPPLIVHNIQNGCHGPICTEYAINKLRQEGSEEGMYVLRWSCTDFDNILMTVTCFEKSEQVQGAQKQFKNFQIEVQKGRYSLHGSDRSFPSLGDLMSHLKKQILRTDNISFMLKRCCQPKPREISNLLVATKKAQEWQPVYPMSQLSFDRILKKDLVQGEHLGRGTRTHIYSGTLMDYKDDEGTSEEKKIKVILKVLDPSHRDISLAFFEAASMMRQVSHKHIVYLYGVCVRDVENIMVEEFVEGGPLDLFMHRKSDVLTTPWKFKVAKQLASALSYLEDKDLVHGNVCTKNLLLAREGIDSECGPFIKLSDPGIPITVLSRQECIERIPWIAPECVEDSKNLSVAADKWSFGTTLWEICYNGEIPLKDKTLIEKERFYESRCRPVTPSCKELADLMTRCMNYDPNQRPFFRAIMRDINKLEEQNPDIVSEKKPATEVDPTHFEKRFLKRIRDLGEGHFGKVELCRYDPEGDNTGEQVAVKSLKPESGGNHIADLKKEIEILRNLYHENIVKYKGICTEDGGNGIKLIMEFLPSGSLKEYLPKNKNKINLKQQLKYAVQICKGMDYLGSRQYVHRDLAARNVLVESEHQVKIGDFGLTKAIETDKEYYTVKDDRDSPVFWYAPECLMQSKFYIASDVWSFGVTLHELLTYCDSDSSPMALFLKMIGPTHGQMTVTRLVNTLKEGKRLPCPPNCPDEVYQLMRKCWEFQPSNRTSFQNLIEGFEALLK
Method: as §1

JAK2 = JAK2 (Homo sapiens (Human), UniProt O60674); assay: Z′-Lyte kinase inhibitory activity test; assay type: biochemical
Sequence of JAK2 (O60674 whole entry): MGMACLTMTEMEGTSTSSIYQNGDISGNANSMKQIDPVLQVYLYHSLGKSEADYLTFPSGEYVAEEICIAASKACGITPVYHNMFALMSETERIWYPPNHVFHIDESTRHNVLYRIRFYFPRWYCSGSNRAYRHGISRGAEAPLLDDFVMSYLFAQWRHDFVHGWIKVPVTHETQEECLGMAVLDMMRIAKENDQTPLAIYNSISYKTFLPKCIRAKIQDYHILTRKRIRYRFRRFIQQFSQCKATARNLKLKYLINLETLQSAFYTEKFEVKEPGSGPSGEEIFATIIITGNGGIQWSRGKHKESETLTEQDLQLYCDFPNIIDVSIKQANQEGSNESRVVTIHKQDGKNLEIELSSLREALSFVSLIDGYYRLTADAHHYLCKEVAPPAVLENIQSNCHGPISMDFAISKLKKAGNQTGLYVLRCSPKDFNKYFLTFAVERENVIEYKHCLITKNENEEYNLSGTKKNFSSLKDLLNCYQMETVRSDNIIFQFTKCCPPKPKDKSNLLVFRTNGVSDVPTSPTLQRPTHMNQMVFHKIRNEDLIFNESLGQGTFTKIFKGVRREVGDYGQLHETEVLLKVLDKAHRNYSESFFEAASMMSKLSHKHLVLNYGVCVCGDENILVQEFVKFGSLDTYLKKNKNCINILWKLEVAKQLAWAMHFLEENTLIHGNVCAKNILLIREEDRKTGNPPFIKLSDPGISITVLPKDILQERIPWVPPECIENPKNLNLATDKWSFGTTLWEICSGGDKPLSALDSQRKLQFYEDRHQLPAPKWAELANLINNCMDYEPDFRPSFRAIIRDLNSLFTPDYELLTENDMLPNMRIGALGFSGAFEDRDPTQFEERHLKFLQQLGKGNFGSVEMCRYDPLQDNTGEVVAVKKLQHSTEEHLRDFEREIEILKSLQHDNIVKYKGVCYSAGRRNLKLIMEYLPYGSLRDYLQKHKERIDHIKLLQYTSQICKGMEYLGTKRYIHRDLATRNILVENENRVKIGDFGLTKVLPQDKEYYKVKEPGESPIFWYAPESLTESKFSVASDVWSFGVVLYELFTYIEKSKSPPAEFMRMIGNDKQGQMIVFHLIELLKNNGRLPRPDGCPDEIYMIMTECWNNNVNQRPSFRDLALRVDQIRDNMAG
Method: as §1

[1] = test system: human T lymphocyte leukemia cell line HuT78; assay: CCK-8 in vitro proliferation inhibition; assay type: cell-based; conditions: read-out: Inhibitory activity (IC50) on cell proliferation, HUT78
Method: (§2) Cell lines: human chronic myeloid leukemia cell line K562, human acute myeloid leukemia cell line U937, human T lymphocyte leukemia cell line HuT78, and human T lymphoblastic lymphoma cell line Jurkat. Cells were purchased from the Chinese Academy of Sciences Stem Cell Bank or ATCC.
(§3) […] were cultured overnight and suspended cells were directly stimulated with drugs. […] Two repeats were set for each concentration, with a final volume of 200 μL. […] The absorbance values at 450 nm and 650 nm were measured using a microplate reader, and the increment Z (A450-A650) was derived. The inhibitory rate of drugs on cell growth was calculated by GraphPad Prism 8.0.0 through the following formula:
(§4) Inhibition rate (%)(ODcontrol−ODdosing)/ODcontrol×100%
(§5) The half inhibitory concentration (IC50) was calculated. Every experiment was repeated at least three times.

[2] = test system: human T lymphoblastic lymphoma cell line Jurkat; assay: CCK-8 in vitro proliferation inhibition; assay type: cell-based; conditions: 72 hours, read-out: Inhibitory activity (IC50) on cell proliferation, JURKAT
Method: as §2, §3, §4, §5

[3] = test system: human chronic myeloid leukemia cell line K562; assay: CCK-8 in vitro proliferation inhibition; assay type: cell-based; conditions: read-out: Inhibitory activity (IC50) on cell proliferation, K562
Method: as §2, §3, §4, §5

[4] = test system: human acute myeloid leukemia cell line U937; assay: CCK-8 in vitro proliferation inhibition; assay type: cell-based; conditions: read-out: Inhibitory activity (IC50) on cell proliferation, U937
Method: as §2, §3, §4, §5

SMILES	IC50 (TYK2)	IC50 (JAK3; ATP concentration 1 mM)	IC50 (JAK3; ATP concentration Km)	JAK3 kinase inhibitory activity and selectivity (in words) (JAK3)	IC50 (JAK1)	IC50 (JAK2; ATP concentration Km)	IC50 ([1]; Homo sapiens, HuT78, 72 hours)	IC50 ([2]; Homo sapiens, Jurkat)	IC50 ([3]; Homo sapiens, K562, 72 hours)	IC50 ([4]; Homo sapiens, U-937, 72 hours)	IC50 (JAK3)	IC50 (JAK2)	IC50 ([1]; 72 hours)	IC50 [2]	IC50 ([3]; 72 hours)	IC50 ([4]; 72 hours)
C=CC(=O)Nc1cc(Nc2ncc(Cl)c(O[C@@H]3CO[C@H]4[C@@H]3OC[C@H]4O)n2)ccc1N1CCOCC1 [LS 5-66]	335 nM	14.4 nM	5.9 nM	strong and selective JAK3 kinase inhibitory activity	1120 nM	1160 nM	1090 nM	2640 nM	1860 nM	87.5 nM	–	–	–	–	–	–
C=CC(=O)Nc1cc(Nc2ncc(Cl)c(O[C@@H]3CO[C@H]4[C@@H]3OC[C@H]4O)n2)ccc1N1CCC2(CCN(C)CC2)CC1 [LS 5-91]	233 nM	20.6 nM	5.5 nM	strong and selective JAK3 kinase inhibitory activity	895 nM	1060 nM	19.2 nM	34.1 nM	70.9 nM	5.78 nM	–	–	–	–	–	–
C=CC(=O)Nc1cc(Nc2ncc(Cl)c(O[C@@H]3CO[C@H]4[C@@H]3OC[C@H]4O)n2)ccc1F [LS 5-62]	860 nM	–	–	strong and selective JAK3 kinase inhibitory activity	1060 nM	–	–	–	–	–	2.2 nM and 2.26 nM	11000 nM	423 nM	2460 nM	637 nM	111 nM
C/C=C/C(=O)Nc1cc(Nc2ncc(Cl)c(O[C@@H]3CO[C@H]4[C@@H]3OC[C@H]4O)n2)ccc1N1CCC(N2CCN(C)CC2)CC1 [LS 5-72]	430 nM	4380 nM	90.5 nM	–	2670 nM	1540 nM	928 nM	2780 nM	2760 nM	524 nM	–	–	–	–	–	–
C=CC(=O)Nc1cc(Nc2ncc(Cl)c(O[C@@H]3CO[C@H]4[C@@H]3OC[C@H]4O)n2)ccc1N1CCN(CC)CC1 [LS 5-143]	166 nM	2.17 nM	2.19 nM	strong and selective JAK3 kinase inhibitory activity	481 nM	362 nM	75.3 nM	128 nM	216 nM	12 nM	–	–	–	–	–	–
C=CC(=O)Nc1cc(Nc2ncc(Cl)cn2)ccc1N1CCC(N2CCN(C)CC2)CC1 [LS 5-126, N-(5-((5-chloropyrimidin-2-yl)amino)-2-(4-(4-methylpiperazin-1-yl)piperidin-1-yl)phenyl) acrylamide]	3120 nM	4.35 nM	3.9 nM	–	4770 nM	2080 nM	463 nM	551 nM	39.9 nM	69.2 nM	–	–	–	–	–	–
C=CC(=O)Nc1cc(Nc2ncc(Cl)c(O[C@@H]3CO[C@H]4[C@@H]3OC[C@H]4O)n2)ccc1N1CCC(N(C)C)CC1 [LS 5-102]	241 nM	2.68 nM	2.5 nM	strong and selective JAK3 kinase inhibitory activity	1040 nM	437 nM	92.4 nM	290 nM	866 nM	21.1 nM	–	–	–	–	–	–
C=C(C)C(=O)Nc1cc(Nc2ncc(Cl)c(O[C@@H]3CO[C@H]4[C@@H]3OC[C@H]4O)n2)ccc1N1CCC(N2CCN(C)CC2)CC1 [LS 5-73]	312 nM	4940 nM	72.4 nM	–	1730 nM	1630 nM	476 nM	2240 nM	117 nM	246 nM	–	–	–	–	–	–
CN(C)C/C=C/C(=O)Nc1cc(Nc2ncc(Cl)c(O[C@@H]3CO[C@H]4[C@@H]3OC[C@H]4O)n2)ccc1N1CCC(N2CCN(C)CC2)CC1 [LS 5-81]	278 nM	4190 nM	57 nM	–	4880 nM	2360 nM	1060 nM	3050 nM	5980 nM	227 nM	–	–	–	–	–	–
C=CC(=O)Nc1cc(Nc2ncc(Cl)c(O[C@@H]3CO[C@H]4[C@@H]3OC[C@H]4O)n2)ccc1N1CCC(N2CCN(C)CC2)CC1 [LS 5-12, N-(5-((5-chloro-4-(((3R,3aR,6R, 6aR)-6-hydroxyhexahydrofurano[3,2-b]furan-3-yl)oxygen)pyrimidin-2-yl)amino)-2-(4-(4-methylpiperazin-1-yl)piperidin-1-yl)phenyl) acrylamide]	369 nM	–	–	strong and selective JAK3 kinase inhibitory activity	1540 nM	–	–	–	–	–	–	1030 nM	31.7 nM	434 nM	290 nM	35.9 nM
CN1CCN(C2CCN(c3ccc(Nc4ncc(Cl)c(O[C@@H]5CO[C@H]6[C@@H]5OC[C@H]6O)n4)cc3)CC2)CC1 [LS 4-145]	301 nM	4290 nM	66 nM	–	470 nM	981 nM	2390 nM	9030 nM	822 nM	516 nM	–	–	–	–	–	–
C=CC(=O)Nc1cccc(Nc2ncc(Cl)c(O[C@@H]3CO[C@H]4[C@@H]3OC[C@H]4O)n2)c1 [LS 5-77]	93.9 nM	–	–	strong and selective JAK3 kinase inhibitory activity	556 nM	–	–	–	–	–	1.25 nM and 2.39 nM	1400 nM	447 nM	1660 nM	103 nM	106 nM
C=CC(=O)Nc1cc(Nc2ncc(Cl)c(O[C@@H]3CO[C@H]4[C@@H]3OC[C@H]4O)n2)ccc1N1C[C@H]2C[C@@H]1CN2C [LS 5-154]	188 nM	1.59 nM	1.56 nM	strong and selective JAK3 kinase inhibitory activity	800 nM	524 nM	717 nM	346 nM	2410 nM	34 nM	–	–	–	–	–	–
C=CC(=O)Nc1cc(Nc2ncc(Cl)c(O[C@@H]3CO[C@H]4[C@@H]3OC[C@H]4OC)n2)ccc1N1CCC(N2CCN(C)CC2)CC1 [LS 6-16]	906 nM	–	–	–	533 nM	–	–	–	–	–	8.12 nM and 12.5 nM	967 nM	121 nM	136 nM	191 nM	24 nM
C=CC(=O)Nc1cc(Nc2ncc(Cl)c(O[C@@H]3CO[C@H]4[C@@H]3OC[C@H]4O)n2)ccc1N1CCC(N(C)C)C1 (stereo partly shown) [LS 5-150]	186 nM	1.74 nM	1.98 nM	strong and selective JAK3 kinase inhibitory activity	270 nM	606 nM	272 nM	275 nM	897 nM	15.8 nM	–	–	–	–	–	–
C=CC(=O)Nc1cc(Nc2ncc(Cl)c(O[C@@H]3CO[C@H]4[C@@H]3OC[C@H]4O)n2)ccc1N(C)CCO [LS 5-74]	226 nM	7.37 nM	4.26 nM	strong and selective JAK3 kinase inhibitory activity	1120 nM	1520 nM	448 nM	3950 nM	91.8 nM	181 nM	–	–	–	–	–	–
C=CC(=O)Nc1cc(Nc2ncc(Cl)c(O[C@@H]3CO[C@H]4[C@@H]3OC[C@H]4O)n2)ccc1N(C)CCN(C)C [LS 5-88]	424 nM	2.25 nM	1.93 nM	–	2870 nM	–	81.1 nM	111 nM	417 nM	15.3 nM	–	–	–	–	–	–
